Results as given in US12173088B2, “Anti-microbial peptides” (priority 2018, dated 2024).
In brackets after ≈: the same amount, converted by molar mass. Read-outs that look alike come from different tables or passages of the source. Peptide text beside a SMILES is read from it.

Assays:
[1] = test system: S. aureus USA300; assay: microbe, parasite or virus in culture; format: cell-based, Staphylococcus aureus
Excerpt: The bacterial strains used include the Gram-positive strains Staphylococcus aureus USA300 LAC, S. epidermidis 1457, and Bacillus subtilis 168, as well as the Gram-negative isolates Escherichia coli K12 and Acinetobacter baumannii B2367-12. Additional, drug resistance strains include Gram-positive Enterococcus faecium V286-17 (VRE) and S. aureus M838-17 (MRSA) and Gram-negative E. coli E423-17, E. coli E416-17 (ampC), and P. aeruginosa E411-17. Bacteria were cultivated in tryptic soy broth (TSB) (BD Bioscience, MD).
(§1) The antibacterial activity of peptides was evaluated using a standard broth microdilution protocol with minor modifications as described (Mishra, et al. (2012) J. Am. Chem. Soc., 134:12426-12429). In brief, logarithmic phase bacterial cultures (i.e., optical density at 600 nm≈0.5) were diluted to OD600 0.001 and partitioned into a 96-well polystyrene microplate at 90 μL per well. After treatment with 10 μL of peptide solutions two fold diluted to various concentrations, microplates were incubated at 37° C. overnight and read on a ChroMate® 4300 Microplate Reader at 630 nm (GMI, Ramsey, MN). […] To study the influence of medium conditions on the antimicrobial activity of peptides against S. aureus USA300, up to 200 mM sodium chloride (NaCl), 2 mM of calcium chloride, 5-10% of human serum, mouse plasma, fluid, or supernatants of tissue homogenates were included into the assays.
(§2) The bacterial strains used include the Gram-positive bacteria methicillin-resistant Staphylococcus aureus USA300, Enterococcus faecium V286-17 (VRE), S. aureus M838-17 (MRSA) and Gram-negative bacteria E. coli E423-17, E416-7 (ampC), P. aeruginosa E411-17, PA01, K. pneumoniae E406-17, ATCC13883, and A. baumannii B26-16. Bacteria were cultivated in tryptic soy broth (TSB) from BD Bioscience.
(§3) The antibacterial activity of peptides was evaluated using a standard broth microdilution protocol with minor modifications (Mishra, et al. (2017) Acta Biomater., 49:316-328). In brief, logarithmic phase bacterial cultures (i.e., optical density at 600 nm≈0.5) were diluted to 0.001 OD and aliquoted 90 μL per well into a 96-well polystyrene microplate. Added 10 μL peptides per well with various concentrations, plates were incubated at 37° C., overnight. Post incubation the plates are read at 630 nm using a ChroMate® Microplate Reader (GMI). […] To study the influence of medium conditions on the antimicrobial activity of peptides against S. aureus USA300 at different pHs (6.8, 7.2, and 8.0), 150 mM sodium chloride (NaCl), 5-10% of human serum, mouse plasma, and peritoneal fluid were included into the assays.

[2] = test system: P. aeruginosa PAO1; format: cell-based, Pseudomonas aeruginosa
Experimental: as §1, §2, §3

[3] = test system: human red blood cells (hRBCs); assay: Hemolytic assay; format: cell-based
Experimental: Briefly, human red blood cells (hRBCs) were washed three times with phosphate buffer saline (PBS) and diluted to a 2% solution (v/v). After peptide treatment, incubation at 37° C. for one hour, and centrifugation at 5000 rpm for 10 minutes, aliquots of the supernatant were carefully transferred to a fresh 96-well microplate. The amount of hemoglobin released was measured at 545 nm. The percent lysis was calculated by assuming 100% release when human blood cells were treated with 2% Triton™ X-100, and 0% release when incubated with PBS buffer. The peptide concentration that caused 50% lysis of hRBCs is defined as HL50. The cell selectivity index (CSI) was calculated as the ratio between HL50 and MIC of the corresponding peptide against a select pathogenic species.
Hemolytic assays of peptides were performed as described (Mishra, et al. (2017) Acta Biomater., 49:316-328). Briefly, human red blood cells (hRBCs) obtained from UNMC Blood Bank. The blood washed 3× with isotonic saline (0.9% NaCl) and diluted to 2% blood cells (v/v). Peptide horine and verine at various concentrations were added into the 2% blood cells and incubated at 37° C. for 1 hour. Post incubation the plates were spun at 2000 rpm for 10 minutes, aliquots of the supernatant were carefully transferred to a fresh 96-well microplate. The amount of cells lysed is proportional to the hemoglobin released and measured at 545 nm using a ChroMate® microplate reader. The percent lysis was calculated by assuming 100% release when human blood cells were treated with 1% Triton™ X-100, and 0% release when incubated with PBS. The peptide concentration that caused 50% lysis of hRBCs is defined as HL50.

[4] = test system: E. coli ATCC 25922; format: cell-based, Escherichia coli
Experimental: as §1, §3

[5] = test system: K. pneumoniae ATCC 13883; format: cell-based, Klebsiella pneumoniae; settings: ATCC 13883
Experimental: as §1, §2, §3

SMILES	MIC S. aureus USA 300 ([1]; USA300) [µM]	MIC P. aeruginosa PAO1 ([2]; PAO1) [µM]	HL50 [3] [µM]	MIC E. coli ATCC 25922 ([4]; ATCC 25922) [µM]	MIC K. pneumoniae ATCC 13883 [5] [µM]	also measured
CC(C)C[C@H](NC(=O)[C@H](CC(C)C)NC(=O)[C@H](CCCCN)NC(=O)CNC(=O)[C@H](C)NC(=O)[C@H](C)NC(=O)[C@H](CCCCN)NC(=O)[C@H](CC(C)C)NC(=O)[C@H](C)NC(=O)[C@H](CO)NC(=O)[C@H](CC(C)C)NC(=O)[C@H](CC(C)C)NC(=O)CN)C(N)=O [DFT521, GLLSALKAAGKLL] (H-GLLSALKAAGKLL-NH2; N-terminus assumed)	12.5 (≈ 15.7 µg/mL)	>25	>50	12.5 (≈ 15.7 µg/mL)		MIC against S. aureus ([1]; USA300): 12.5 to 25 µM
CC[C@H](C)[C@H](NC(=O)[C@H](CCCCN)NC(=O)[C@H](CCCNC(=N)N)NC(=O)[C@@H](N)CC(C)C)C(=O)N[C@@H](Cc1c[nH]c2ccccc12)C(=O)N[C@@H](Cc1c[nH]c2ccccc12)C(=O)N[C@@H](Cc1c[nH]c2ccccc12)C(=O)N[C@@H](Cc1c[nH]c2ccccc12)C(=O)O [WW294, LRKIWWWW] (H-LRKIWWWW-OH; N-terminus and C-terminus assumed)	3.1 to 6.2			12.5 (≈ 15.9 µg/mL)	6.2 to 12.5	
CC[C@H](C)[C@H](NC(=O)[C@H](CCCCN)NC(=O)[C@H](CCCNC(=N)N)NC(=O)[C@H](CC(C)C)NC(=O)[C@H](Cc1c[nH]c2ccccc12)NC(=O)[C@@H](N)Cc1c[nH]c2ccccc12)C(=O)N[C@@H](Cc1c[nH]c2ccccc12)C(=O)N[C@@H](Cc1c[nH]c2ccccc12)C(=O)O [WW292, WWLRKIWW] (H-WWLRKIWW-OH; N-terminus and C-terminus assumed)	6.2 (≈ 7.9 µg/mL)			25 (≈ 31.8 µg/mL)	>50	
CC(C)C[C@H](NC(=O)[C@H](CC(C)C)NC(=O)[C@H](CCCCN)NC(=O)CNC(=O)[C@H](C)NC(=O)[C@H](C)NC(=O)[C@H](CCCCN)NC(=O)[C@H](C)NC(=O)[C@H](C)NC(=O)[C@H](CO)NC(=O)[C@H](CC(C)C)NC(=O)[C@H](CC(C)C)NC(=O)CN)C(N)=O [DFT522, GLLSAAKAAGKLL] (H-GLLSAAKAAGKLL-NH2; N-terminus assumed)	>25	>25	50	>25		Antimicrobial activity ([1]; at 25 μM): inactive
CC[C@H](C)[C@H](NC(=O)[C@@H](N)CCCCN)C(=O)N[C@@H](Cc1c[nH]c2ccccc12)C(=O)N[C@@H](Cc1c[nH]c2ccccc12)C(=O)N[C@@H](Cc1c[nH]c2ccccc12)C(=O)N[C@@H](Cc1c[nH]c2ccccc12)C(=O)N[C@@H](CC(C)C)C(=O)N[C@@H](CCCNC(=N)N)C(=O)O [WW296, KIWWWWLR] (H-KIWWWWLR-OH; N-terminus and C-terminus assumed)	3.1 (≈ 3.95 µg/mL)			6.2 to 12.5	12.5 (≈ 15.9 µg/mL)	
CC[C@H](C)[C@H](NC(=O)[C@H](CCCNC(=N)N)NC(=O)[C@H](CCCNC(=N)N)NC(=O)[C@H](CCCNC(=N)N)NC(=O)[C@H](Cc1c[nH]c2ccccc12)NC(=O)[C@H](Cc1c[nH]c2ccccc12)NC(=O)[C@@H](N)Cc1c[nH]c2ccccc12)C(=O)N[C@@H](Cc1c[nH]c2ccccc12)C(N)=O [WW303, WWWRRRIW] (H-WWWRRRIW-NH2; N-terminus and C-terminus assumed)		25 to 50	>200			MIC K. pneumonia ATCC 13883 [5]: >25 µM
CC[C@H](C)[C@H](NC(=O)[C@H](CCCCN)NC(=O)[C@H](CCCNC(=N)N)NC(=O)[C@H](CC(C)C)NC(=O)[C@@H](N)Cc1c[nH]c2ccccc12)C(=O)N[C@@H](Cc1c[nH]c2ccccc12)C(=O)N[C@@H](Cc1c[nH]c2ccccc12)C(=O)N[C@@H](Cc1c[nH]c2ccccc12)C(=O)O [WW293, WLRKIWWW] (H-WLRKIWWW-OH; N-terminus and C-terminus assumed)	3.1 to 6.2			12.5 to 25	25 (≈ 31.8 µg/mL)	
CC(C)C[C@H](NC(=O)[C@H](CC(C)C)NC(=O)[C@H](CCCCN)NC(=O)CNC(=O)[C@H](CC(C)C)NC(=O)[C@H](CC(C)C)NC(=O)[C@H](CO)NC(=O)[C@H](CC(C)C)NC(=O)[C@H](CO)NC(=O)[C@H](CC(C)C)NC(=O)[C@H](CC(C)C)NC(=O)CN)C(N)=O [DFT523, GLLSL-SLLGKLL] (H-GLLSLSLLGKLL-NH2; N-terminus and C-terminus assumed)						MIC against S. aureus ([1]; Example 1): 12.5 to 25 µM; MIC S. aureus USA 300 ([1]; Table 3, quantified by UV): 12.5 µM (≈ 15.3 µg/mL); MIC P. aeruginosa PAO1 ([2]; Table 3, quantified by UV): >25 µM; HL50 ([3]; Table 3, hRBCs 2% v/v): >50 µM; MIC against E. coli [4]: 12.5 to 25 µM; MIC E. coli ATCC 25922 ([4]; Table 3, quantified by UV): 25 µM (≈ 30.6 µg/mL)
CC[C@H](C)[C@H](NC(=O)[C@H](CCCNC(=N)N)NC(=O)[C@H](CCCNC(=N)N)NC(=O)[C@H](CC(C)C)NC(=O)[C@H](Cc1c[nH]c2ccccc12)NC(=O)[C@H](Cc1c[nH]c2ccccc12)NC(=O)[C@@H](N)Cc1c[nH]c2ccccc12)C(=O)N[C@@H](Cc1c[nH]c2ccccc12)C(N)=O [WW299, WWWLRRIW] (H-WWWLRRIW-NH2; N-terminus and C-terminus assumed)		>50	35			MIC K. pneumonia ATCC 13883 [5]: 25 µM (≈ 32.5 µg/mL)
CC[C@H](C)[C@H](NC(=O)[C@H](CCCNC(=N)N)NC(=O)[C@H](CCCNC(=N)N)NC(=O)[C@H](CC(C)C)NC(=O)[C@H](Cc1c[nH]c2ccccc12)NC(=O)[C@H](Cc1c[nH]c2ccccc12)NC(=O)[C@@H](N)CCCNC(=N)N)C(=O)N[C@@H](Cc1c[nH]c2ccccc12)C(N)=O [WW300, RWWLRRIW] (H-RWWLRRIW-NH2; N-terminus and C-terminus assumed)		12.5 (≈ 15.9 µg/mL)	>200			MIC K. pneumonia ATCC 13883 [5]: >50 µM
CC[C@H](C)[C@H](NC(=O)[C@H](CCCCN)NC(=O)[C@H](CCCNC(=N)N)NC(=O)[C@H](CC(C)C)NC(=O)[C@H](Cc1c[nH]c2ccccc12)NC(=O)[C@H](Cc1c[nH]c2ccccc12)NC(=O)[C@H](Cc1c[nH]c2ccccc12)NC(=O)[C@@H](N)Cc1c[nH]c2ccccc12)C(=O)O [WW298, WWWWLRKI] (H-WWWWLRKI-OH; N-terminus and C-terminus assumed)	1.5 to 3.1			12.5 (≈ 15.9 µg/mL)	6.2 to 12.5	
